The values below come from PMC11697113, “The Hsc70 system maintains the synaptic SNARE protein SNAP-25 in an assembly-competent state and delays its aggregation [drawing 1]” (The Journal of Biological Chemistry, 2024).

Experiment [1] deals with V438F Hsc70. As to the kind of experiment: ATPase activity of V438F Hsc70. Type of experiment: biochemical, human. The conditions noted are these: V438F Hsc70 2 μM, peptide 200 μM; binding site blocked; three independent experiments (Fig. S3). An excerpt:
Hsp70s consist of an nucleotide-binding domain (NBD) and a substrate-binding domain (SBD). Hsc70 works using an allosteric mechanism whereby substrate binding at the SBD stimulates the ATP hydrolysis rate at the nucleotide-binding domain. The basal ATPase rate of Hsp70 is low, usually about 0.05 ± 0.009 mol Pi/mol protein, and increases when it is stimulated by binding of a peptide to the canonical site in the SBD. We measured the ability of SNAP-25 peptides SNNP and SNCP to stimulate the ATPase rate of Hsc70 (Fig. 5A). SNNP and SNCP binding cause a 1.5-fold increase of the Hsc70 ATPase rate over basal (observed rates upon addition of SNNP and SNCP were 0.089 ± 0.008 and 0.080 ± 0.005, respectively). In order to confirm that peptides are indeed binding at the canonical binding site of Hsc70, we used the V438F mutant that blocks the binding site ([37]). […] The addition of CSPαJ stimulates the ATPase activity of Hsc70 ∼4-fold with and without peptides.
We performed ATPase assays to observe the activity of Hsc70 in the presence of SNAP25 peptides. Hsc70 (2 μM) and peptide (200 μM) were incubated in HMK buffer with 1 mM DTT for 15 min followed by addition of 1 mM ATP and incubation at 37 °C for 1 h. […] Absorbance readings were taken at 620 nm using a BioTek plate reader. […]

The target in experiment [2] is T1, Hsc70 (Homo sapiens, UniProt P11142).
T1 construct: 6X His-tag (TEV-cleavable) (cleaved yes); made in house; host or cells: E. coli Rosetta (DE3)
T1 sequence (P11142 whole entry): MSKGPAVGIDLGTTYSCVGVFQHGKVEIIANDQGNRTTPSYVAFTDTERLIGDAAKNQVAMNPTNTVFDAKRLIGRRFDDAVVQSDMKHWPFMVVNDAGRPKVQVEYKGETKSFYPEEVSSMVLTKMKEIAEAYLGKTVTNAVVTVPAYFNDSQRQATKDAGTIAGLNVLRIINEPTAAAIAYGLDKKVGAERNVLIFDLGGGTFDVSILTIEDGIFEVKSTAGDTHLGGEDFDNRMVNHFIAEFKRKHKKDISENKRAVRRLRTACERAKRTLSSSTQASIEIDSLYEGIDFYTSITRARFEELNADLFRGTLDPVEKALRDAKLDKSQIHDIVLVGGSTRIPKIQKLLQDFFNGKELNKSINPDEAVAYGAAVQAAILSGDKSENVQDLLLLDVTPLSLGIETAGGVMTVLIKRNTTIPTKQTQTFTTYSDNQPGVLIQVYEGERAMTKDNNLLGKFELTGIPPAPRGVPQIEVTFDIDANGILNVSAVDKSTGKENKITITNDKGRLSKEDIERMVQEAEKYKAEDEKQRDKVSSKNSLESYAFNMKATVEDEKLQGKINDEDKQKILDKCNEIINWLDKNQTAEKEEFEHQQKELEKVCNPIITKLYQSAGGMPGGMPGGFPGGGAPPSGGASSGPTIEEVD
In words: Methyl-TROSY NMR of Ile-13CH3-labeled Hsc70 with peptides. Type of experiment: binding. The conditions noted are these: Ile-13CH3 Hsc70 40 μM, 25 °C, 600 MHz, pD 7.4. The procedure:
Figure 5 SNN and SNC peptides interact with the canonical substrate-binding site of Hsc70.A, ATPase activity of Hsc70 (2 μM) in the absence (gray) and presence of 200 μM SNNP (orange) and SNCP (green) peptides. Error bars represent the SDs from three independent experiments. B, binding of SNAP-25 (black), SNNP (orange), LoopP (blue), and SNCP (green) peptides to Hsc70 followed by competition for FITC-p5 peptide using fluorescence anisotropy. Increasing concentrations of the competitors were added to a complex of Hsc70 (5 μM) and FITC-p5 peptide (50 nM). Error bars represent SDs from three independent experiments. C, structure of the canonical substrate-binding site of human HspA1 (PDB 4po2) illustrating the location of Hsc70 residues Ile 403 and Ile 440 in red and green spheres, respectively (N.B., Hsc70 and HspA1 share […] sequence identity). The SBD is shown in gray, bound substrate in cyan sticks, and the side chain of the residue occupying the 0th position in the chaperone (“anchor residue”) in orange ball and sticks. For better visualization of the substrate-binding site, residues 512 to 613, 405 to 408, and 431 were removed in this illustration of the structure. D, the Ile region of the ^1H-^13 C HMQC spectra of Ile-^13CH3-labeled Hsc70 (40 μM) in the absence (black) and in the presence of unlabeled SNNP (orange) and SNCP (green) peptides (200 μM).
To directly observe binding of SNAP-25 peptides to Hsc70, we used methyl-TROSY NMR. We recorded the spectra of complexes between peptides containing the Hsc70 binding sites of SNAP-25 and Hsc70 selectively labeled (^1H,^13 C) at Ile δ1-methyl positions in a ^2H, ^12C background. We had previously found using the Escherichia coli Hsp70, DnaK, that the δ1-methyl chemical shifts of Ile 401 and 438, which contact the central residue of the bound peptide (anchor residue, Fig. 5C), change markedly depending on the identity of the bound anchor residue and the orientation of the peptide backbone with respect to DnaK ([38]). In Hsc70, the side chains of Ile 403 and 440 are similarly arranged with respect to the anchor residue of the bound peptide as Ile 401 and 438 are in DnaK (Fig. 5C) allowing us to use their δ1-methyl chemical shifts to assess directly how the chaperone binds to SNAP-25 peptides SNNP and SNCP. We confirmed the assignment of Ile 403 and Ile 440 chemical shifts by mutating these residues to Leu and collecting methyl-TROSY NMR spectra. The Hsp70 SBD site that binds the anchor residue (termed the 0th pocket) is most frequently occupied by Leu or Ile and less commonly by Val, Pro, or Met ([38], [39], [40], [41]). […]
NMR experiments were carried out at 25 °C on a 600 MHz Bruker Avance III spectrometer equipped with a CryoProbe. Data were processed with NMRPipe and analyzed using ccpNMR Analysis. […]

For the sequence “EREQMAISGGFIRR [SNCP, peptide … from the LOOP-SNC domain of SNAP-25]”, the “enhancement of V438F Hsc70 ATPase activity” value in experiment [1] is listed as “did not enhance its ATPase activity”. In experiment [2], the “Ile 403 and 440 δ1-methyl signals on complex formation” value is on record as “indeed shift upon complex formation”; the “Ile 440 chemical shift splitting (binding modes)” value is on record as “split into two signals”.

For “RRMLQLVEESK [SNNP, peptide … from the SNN domain of SNAP-25]”, the “enhancement of V438F Hsc70 ATPase activity” value in experiment [1] was “did not enhance its ATPase activity”. For the same sequence, in experiment [2], the “Ile 403 and 440 δ1-methyl signals on complex formation” value is “indeed shift upon complex formation”; the “Ile 440 and 403 δ1-methyl chemical shift splitting (binding modes)” value is recorded as “split into two resonances each”.
